{"source": "patent US4751215A", "about": "“Process for increasing the sexual activity of birds and useful domestic mammals and for preparing spermatozoa suitable to their propagation” (INNOFINANCE Altalanos Innovacios Penzintezet, priority 1985, dated 1988)", "type_in_all_cases": "in vivo", "key": {"male turkey": {"system": "male turkey", "experiment": "Effect of interval between three intramuscular injections on sperm production of male turkey (Table 2)", "details": "three i.m. injections, 1 μg/kg", "source_text": "In Table 2, the influence on the sperm production of the interval kept between the consecutive treatments is shown on male turkeys."}, "male turkeys [1]": {"system": "male turkeys", "experiment": "Effect of gonadoliberin analogues on the sperm production of male turkeys (Table 5)", "source_text": "In a further experiment, the sperm production of male turkeys was raised by administering the following four compounds: […]"}, "male turkeys [2]": {"system": "male turkeys", "experiment": "Permanent increase in sperm production of male turkeys bred on a large scale (Example 1, FIG. 4)", "details": "0.5 μg/kg i.m. every 2 days, 3 times", "protocol": "(§1) 0.5 μg/kg of D-Phe^6 -GnRH analogue was intramuscularly administered to sexually mature male turkeys every 2 days, altogether 3 times. On the 20th day following treatment, the sperm production reached an increase of 44% and remained at a higher level, as compared to the control, for about 1 month (FIG. 4).\n(§2) One month and half after the first treatment, the same animals were similarly treated with 0.5 μg/kg of (Asp-α-diethylamide)^6,desGly^10 -GnRH ethylamide analogue every 2 days, altogether 3 times."}, "[3]": {"system": "blood plasma testosterone level", "experiment": "Effect of various doses on blood plasma testosterone level of domestic cock (Table 1)", "source_text": "In Table 1, the relation of the doses of the compounds of general formula (I) to the blood plasma testosterone level of the treated animals is illustrated in case of domestic cocks."}, "bull": {"system": "bull", "experiment": "Enhancement of the sexual activity of a bull", "details": "300 μg each, 3 times", "protocol": "A 2-year old bull of 1010 kg weight, of breeding condition and correspondingly having a good muscular system, good leg construction and a definitely male sexual character was set to breeding in 1985. On October 16 and 23 as well as on Nov. 1, 1985 test coverings were carried out on a rutting female cattle and on a phantom bull. […] Diagnosis stated by the veterinarian specialist: importentia coeundi. The bull was treated on November 29 as well as on Dec. 2 and 4, 1986 altogether 3 times with 300 μg each of D-[…] -GnRH analogue. On Dec. […] 7, 1986. On Jan. 21, 1986 the bull sprung onto a cow being after rutting. The sexual potency of the animal was unobjectionable even after 5 weeks following the treatment."}, "testosterone level": {"system": "testosterone level", "experiment": "Testosterone level of treated male turkeys (Table 3)", "details": "Treated (n = 15)", "protocol": "as §1, §2\nThe rise of the LH level of the blood was followed by an increase in the testosterone level (Table 3)."}}, "data": [{"smiles": "CC(C)C[C@H](NC(=O)[C@@H](Cc1ccccc1)NC(=O)[C@H](Cc1ccc(O)cc1)NC(=O)[C@H](CO)NC(=O)[C@H](Cc1c[nH]c2ccccc12)NC(=O)[C@H](Cc1c[nH]cn1)NC(=O)[C@@H]1CCC(=O)N1)C(=O)N[C@@H](CCCNC(=N)N)C(=O)N1CCC[C@H]1C(=O)NCC(N)=O", "note": "[Compound \"A\", D-Phe^6 -GnRH]", "values": [{"measurement": "Sperm volume", "setting": "male turkey; interval between treatments 24 hour, on day 0", "result": "0.18 (0.05) ml"}, {"measurement": "Sperm volume", "setting": "male turkey; interval between treatments 24 hour, on the 20th day", "result": "0.21 (0.10) ml"}, {"measurement": "Sperm volume", "setting": "male turkey; interval between treatments 48 hour, on day 0", "result": "0.19 (0.07) ml"}, {"measurement": "Sperm volume", "setting": "male turkey; interval between treatments 48 hour, on the 20th day", "result": "0.35 (0.12) ml"}, {"measurement": "Sperm volume", "setting": "male turkey; interval between treatments 72 hour, on day 0", "result": "0.16 (0.08) ml"}, {"measurement": "Sperm volume", "setting": "male turkey; interval between treatments 72 hour, on the 20th day", "result": "0.25 (0.11) ml"}, {"measurement": "Sperm volume", "setting": "male turkey; interval between treatments 144 hour, on day 0", "result": "0.21 (0.07) ml"}, {"measurement": "Sperm volume", "setting": "male turkey; interval between treatments 144 hour, on the 20th day", "result": "0.24 (0.09) ml"}, {"measurement": "Sperm production", "setting": "male turkeys [1]; after 30 days", "result": 0.34, "unit": "ml/animal"}, {"measurement": "Sperm production", "setting": "male turkeys [1]; after 60 days", "result": 0.39, "unit": "ml/animal"}, {"measurement": "Sperm production", "setting": "male turkeys [1]; at the beginning of the experiment", "result": 0.27, "unit": "ml/animal"}, {"measurement": "time sperm production remained at a higher level as compared to the control", "setting": "male turkeys [2]", "result": "about 1 month"}, {"measurement": "increase of sperm production", "setting": "male turkeys [2]; on the 20th day following treatment", "result": 44, "unit": "%"}, {"measurement": "Testosterone level of the blood plasma", "setting": "[3]; dose 0.01 μg/kg, after 0 minutes", "result": "1.7 (0.7) ng/ml"}, {"measurement": "Testosterone level of the blood plasma", "setting": "[3]; dose 0.01 μg/kg, after 30 minutes", "result": "1.6 (1.3) ng/ml"}, {"measurement": "Testosterone level of the blood plasma", "setting": "[3]; dose 0.01 μg/kg, after 60 minutes", "result": "1.5 (1.0) ng/ml"}, {"measurement": "Testosterone level of the blood plasma", "setting": "[3]; dose 0.01 μg/kg, after 120 minutes", "result": "1.4 (0.6) ng/ml"}, {"measurement": "Testosterone level of the blood plasma", "setting": "[3]; dose 0.05 μg/kg, after 0 minutes", "result": "1.4 (0.7) ng/ml"}, {"measurement": "Testosterone level of the blood plasma", "setting": "[3]; dose 0.05 μg/kg, after 30 minutes", "result": "1.7 (1.2) ng/ml"}, {"measurement": "Testosterone level of the blood plasma", "setting": "[3]; dose 0.05 μg/kg, after 60 minutes", "result": "1.5 (1.2) ng/ml"}, {"measurement": "Testosterone level of the blood plasma", "setting": "[3]; dose 0.05 μg/kg, after 120 minutes", "result": "1.9 (0.8) ng/ml"}, {"measurement": "Testosterone level of the blood plasma", "setting": "[3]; dose 0.1 μg/kg, after 0 minutes", "result": "1.0 (0.2) ng/ml"}, {"measurement": "Testosterone level of the blood plasma", "setting": "[3]; dose 0.1 μg/kg, after 30 minutes", "result": "3.4 (1.9) ng/ml"}, {"measurement": "Testosterone level of the blood plasma", "setting": "[3]; dose 0.1 μg/kg, after 60 minutes", "result": "2.7 (1.1) ng/ml"}, {"measurement": "Testosterone level of the blood plasma", "setting": "[3]; dose 0.1 μg/kg, after 120 minutes", "result": "2.0 (0.8) ng/ml"}, {"measurement": "Testosterone level of the blood plasma", "setting": "[3]; dose 0.3 μg/kg, after 0 minutes", "result": "2.1 (0.7) ng/ml"}, {"measurement": "Testosterone level of the blood plasma", "setting": "[3]; dose 0.3 μg/kg, after 30 minutes", "result": "3.9 (0.6) ng/ml"}, {"measurement": "Testosterone level of the blood plasma", "setting": "[3]; dose 0.3 μg/kg, after 60 minutes", "result": "4.2 (1.2) ng/ml"}, {"measurement": "Testosterone level of the blood plasma", "setting": "[3]; dose 0.3 μg/kg, after 120 minutes", "result": "2.6 (0.5) ng/ml"}, {"measurement": "Testosterone level of the blood plasma", "setting": "[3]; dose 0.5 μg/kg, after 0 minutes", "result": "2.5 (1.0) ng/ml"}, {"measurement": "Testosterone level of the blood plasma", "setting": "[3]; dose 0.5 μg/kg, after 30 minutes", "result": "6.5 (0.5) ng/ml"}, {"measurement": "Testosterone level of the blood plasma", "setting": "[3]; dose 0.5 μg/kg, after 60 minutes", "result": "5.3 (1.2) ng/ml"}, {"measurement": "Testosterone level of the blood plasma", "setting": "[3]; dose 0.5 μg/kg, after 120 minutes", "result": "3.9 (1.5) ng/ml"}, {"measurement": "Testosterone level of the blood plasma", "setting": "[3]; dose 1.0 μg/kg, after 0 minutes", "result": "1.5 (0.8) ng/ml"}, {"measurement": "Testosterone level of the blood plasma", "setting": "[3]; dose 1.0 μg/kg, after 30 minutes", "result": "7.2 (3.5) ng/ml"}, {"measurement": "Testosterone level of the blood plasma", "setting": "[3]; dose 1.0 μg/kg, after 60 minutes", "result": "7.1 (3.6) ng/ml"}, {"measurement": "Testosterone level of the blood plasma", "setting": "[3]; dose 1.0 μg/kg, after 120 minutes", "result": "3.7 (1.2) ng/ml"}, {"measurement": "Testosterone level of the blood plasma", "setting": "[3]; dose 3.0 μg/kg, after 0 minutes", "result": "1.9 (0.3) ng/ml"}, {"measurement": "Testosterone level of the blood plasma", "setting": "[3]; dose 3.0 μg/kg, after 30 minutes", "result": "6.2 (2.4) ng/ml"}, {"measurement": "Testosterone level of the blood plasma", "setting": "[3]; dose 3.0 μg/kg, after 60 minutes", "result": "5.2 (1.7) ng/ml"}, {"measurement": "Testosterone level of the blood plasma", "setting": "[3]; dose 3.0 μg/kg, after 120 minutes", "result": "3.0 (1.1) ng/ml"}, {"measurement": "Testosterone level of the blood plasma", "setting": "[3]; dose 5.0 μg/kg, after 0 minutes", "result": "2.1 (1.2) ng/ml"}, {"measurement": "Testosterone level of the blood plasma", "setting": "[3]; dose 5.0 μg/kg, after 30 minutes", "result": "3.6 (2.4) ng/ml"}, {"measurement": "Testosterone level of the blood plasma", "setting": "[3]; dose 5.0 μg/kg, after 60 minutes", "result": "2.7 (0.6) ng/ml"}, {"measurement": "Testosterone level of the blood plasma", "setting": "[3]; dose 5.0 μg/kg, after 120 minutes", "result": "1.7 (0.9) ng/ml"}, {"measurement": "sexual potency of the animal", "setting": "bull; 5 weeks following the treatment", "result": "unobjectionable"}, {"measurement": "covering behaviour after treatment", "setting": "bull; bull with impotentia coeundi, Dec. 6, 1985", "result": "covered two times a rutting cow"}, {"measurement": "Testosterone", "setting": "testosterone level; sampling May 2", "result": "2.43 ± 1.22", "unit": "ng/mL"}, {"measurement": "Testosterone", "setting": "testosterone level; sampling May 23", "result": "4.06 ± 1.62", "unit": "ng/mL"}]}]}
